Results as given in patent publication US10919941B2, “Functional lipid constructs” (KODE BIOTECH LIMITED, priority 2007, dated 2021).
No end group written: not given here.

Assays:
[1] = system: antibody negative serums; assay: False positive reactions of modified RBCs with antibody negative serums/plasma; type: cell-based, human; design: key to Reaction score BioVue AHG, PAC samples 1-46, 49, 50, 52, 53 / Reaction score BioVue AHG, PAC sample 47 / Reaction score BioVue AHG, PAC sample 48 / Reaction score BioVue AHG, PAC sample 51 / agglutination score, T series serum 2 / agglutination score, T series serum 42 / agglutination score, T series serum 63 / agglutination score, T series serum 62 / agglutination score, T series serum 7 / agglutination score, T series serum 20 / agglutination score, T series serum 48 / agglutination score, T series serum 22 / agglutination score, T series serum 39 / agglutination score, T series serum 23 / agglutination score, T series serum 30 / agglutination score, T series serum 4 / agglutination score, T series serum 31 / agglutination score, T series serum 44 / agglutination score, T series serum 61 / agglutination score, T series serum 18 / agglutination score, T series serum 21 / agglutination score, T series serum 28 / agglutination score, T series serum 55 / agglutination score, false positive serum T18 / agglutination score, false positive serum T21 / agglutination score, false positive serum T28 / agglutination score, false positive serum T55 / agglutination score, false positive serum T78 / agglutination score, false positive serum T92: 0 or ‘−’ no agglutination; 0 or ‘−’ no agglutination; 1+ or 3=very weak agglutination; 1+ or 3=very weak agglutination; 2+ or 5=weak agglutination; 2+ or 5=weak agglutination; 3+ or 8=moderate strong agglutination; 3+ or 8=moderate strong agglutination; 4+ or 10/12=strong agglutination; 4+ or 10/12=strong agglutination; 4+ or 10/12=strong agglutination; settings: BioVue AHG cards
[2] = system: Miltenberger Antibody Positive Panel; assay: Reactivity of modified RBCs against the Miltenberger Antibody Positive Panel; type: cell-based, human; design: key to score vs panel 15 TAP2 / score vs panel 4 T7202 / score vs panel 8 T5896 / score vs panel 2 T217 / score vs panel 3 T165 / score vs panel 14 TAP1 / score vs panel 10 Mia / score vs panel 11 Mur / score vs panel 12 Gam / score vs panel 6 T6025 / score vs panel 7 T8445 / score vs panel 9 MIII / score vs panel 13 BoxH / reactivity with Panel Serum #7 (T8445) / agglutination score, Panel Serum #7 (T8445): 0 or ‘−’ no agglutination; 0 or ‘−’ no agglutination; 1+ or 3=very weak agglutination; 1+ or 3=very weak agglutination; 2+ or 5=weak agglutination; 2+ or 5=weak agglutination; 3+ or 8=moderate strong agglutination; 3+ or 8=moderate strong agglutination; 4+ or 10/12=strong agglutination; 4+ or 10/12=strong agglutination; 4+ or 10/12=strong agglutination
Description: (§1) Red blood cells are modified by mixing 1 part by volume of washed packed red blood cells with 1 part by volume of peptide-lipid construct dispersed at a concentration of 10 to 1000 pg/ml in cell media (Celpresol™).
(§2) The suspensions are either: • 1. incubated for 2 hours at 37° C. before being washed and suspended in a cell medium for serological analysis at a concentration of 0.8 to 3% (Method 1); or • 2. incubated for 3 to 4 hours at room temperature (circa 25° C.) followed by 18 hours at 4° C. before being washed and suspended in a cell medium for serological analysis at a concentration of 0.8 to 3% (Method 2).
(§3) Serological reactions are graded or scored by either of two established systems (0 or ‘−’ no agglutination, 1+ or 3=very weak agglutination, 2+ or 5=weak agglutination, 3+ or 8=moderate strong agglutination, 4+ or 10/12=strong agglutination)
(§4) Serological platforms used are Tube (addition of reagents and reactants into plastic or glass serology tubes and after appropriate incubations, washing and centrifugation observing reactions macroscopically by eye and a 10× magnification eyepiece and scoring) and BioVue™ (addition of reactants into cassettes containing beads (including some reactants) and after appropriate incubations and centrifugation observing the reaction patterns trapped within the Gel matrix). BioVue is the serological column agglutination platform of Ortho-Clinical Diagnostics. Diamed is the serological column agglutination platform of Diamed AG.

[3] = system: Miltenberger antibody positive sera; assay: BioVue AHG card column agglutination serology of modified red blood cells; type: cell-based, human; design: key: 0 or ‘−’ no agglutination; 0 or ‘−’ no agglutination; 1+ or 3=very weak agglutination; 1+ or 3=very weak agglutination; 2+ or 5=weak agglutination; 2+ or 5=weak agglutination; 3+ or 8=moderate strong agglutination; 3+ or 8=moderate strong agglutination; 4+ or 10/12=strong agglutination; 4+ or 10/12=strong agglutination; 4+ or 10/12=strong agglutination; settings: construct 100 μg/ml
Description: as §1, §2, §3, §4

[4] = system: sera reactive with modified RBCs; assay: Neutralisation of reactive sera with free peptide, retested against modified RBCs (BioVue); type: cell-based, human; design: key: 0 or ‘−’ no agglutination; 0 or ‘−’ no agglutination; 1+ or 3=very weak agglutination; 1+ or 3=very weak agglutination; 2+ or 5=weak agglutination; 2+ or 5=weak agglutination; 3+ or 8=moderate strong agglutination; 3+ or 8=moderate strong agglutination; 4+ or 10/12=strong agglutination; 4+ or 10/12=strong agglutination; 4+ or 10/12=strong agglutination
Source text: Optionally, where F is a peptide, the method includes the preliminary step of: • Adding an amount of the peptide to the sample of the serum; where the amount of the peptide is sufficient to neutralize non-specific agglutination or confirm specificity of the reactive antibody.

[5] = system: CSL monoclonal anti-A; assay: BioVue serology of RBCs modified with Atri-lipid constructs against anti-A; type: cell-based; design: key: 0 or ‘−’ no agglutination; 0 or ‘−’ no agglutination; 1+ or 3=very weak agglutination; 1+ or 3=very weak agglutination; 2+ or 5=weak agglutination; 2+ or 5=weak agglutination; 3+ or 8=moderate strong agglutination; 3+ or 8=moderate strong agglutination; 4+ or 10/12=strong agglutination; 4+ or 10/12=strong agglutination; 4+ or 10/12=strong agglutination
Description: To test the hypothesis solutions of four different trisaccharide (Atri)-lipid constructs were prepared as 50 μM, 10 μM and 5 μM solutions in Celpresol™. Modified red blood cells were then prepared by contacting 0.6 mls (pcv) of washed RBCs with 0.6 mls of the relevant solution. The mixtures were incubated at 37° C. for 2 hours and then washed 3 times to provide a modified cell suspension.
The modified cell suspensions were prepared in 0.8% in Celpresol LISS™ suitable for BioVue serology cards. A volume of 0.05 mls of CSL monoclonal anti-A (026129801) followed by 0.05 mls of modified cell suspension was applied to each card. Reactions were recorded following centrifugation in a BioVue cassette centrifuge (Table 29).
There was no significant gain with CMG(2) compared with CMG(4). There was a minor, but not significant change for MCMG (2).

[6] = cells modified at 50 μg/ml, 2 hour 37° C.
[7] = cells modified with the peptide-lipid construct M28, AHG test in BioVue
[8] = cells modified at 500 μg/ml (Method 1), BioVue cards
[9] = serum neutralised with peptide SSQTNDKHKRDTY (10 μL of 1 mg/ml to 50 μL, 30 minutes 37° C.), BioVue cards
[10] = 40 μl plasma + 10 μl neutraliser 1.0 mg/ml, 30 minutes 37° C., cells modified with M22
[11] = 40 μl plasma + 10 μl neutraliser 1.0 mg/ml, 30 minutes 37° C., head: cells modified with the peptide-lipid construct M22 (title: M28)

M28: DOPE peptide-lipid construct: Mur peptide TYPAHTANE, leader c, spacer CMG(2) (TYPAHTANEC; also: DOPE peptide-lipid construct via leader Cys, spacer CMG(2))
10: agglutination score, T series serum 2 [1, 6] | agglutination score, T series serum 44 [1, 6] | agglutination score, T series serum 61 [1, 6] | score vs panel 4 T7202 ([2]; Table 9, construct 50 μg/ml) | TAP 2 Serum BioVue AHG score [3]
9%: % positive ([1]; T series reactives (n = 58))
5: Pre-neutralisation serology, PAC71 [4, 7] | Pre-neutralisation serology, PAC72 [4, 7]
8: agglutination score, T series serum 4 [1, 6] | agglutination score, T series serum 31 [1, 6] | score vs panel 7 T8445 ([2]; Table 9, construct 50 μg/ml) | score vs panel 15 TAP2 ([2]; Table 9, construct 50 μg/ml) | agglutination score, Panel Serum #7 (T8445) ([2]; cells modified at 50 μg/ml, 2 hour 37° C., BioVue AHG cards) | reactivity with Panel Serum #7 (T8445) ([2]; construct 50 μg/ml (2 hours, 37° C.)) | Pre-neutralisation serology, PAC70 [4, 7] | Pre-neutralisation serology, TAP2 [4, 7]
0: agglutination score, T series serum 7 [1, 6] | agglutination score, T series serum 18 [1, 6] | agglutination score, T series serum 20 [1, 6] | agglutination score, T series serum 21 [1, 6] | agglutination score, T series serum 22 [1, 6] | agglutination score, T series serum 23 [1, 6] | agglutination score, T series serum 28 [1, 6] | agglutination score, T series serum 30 [1, 6] | agglutination score, T series serum 39 [1, 6] | agglutination score, T series serum 42 [1, 6] | agglutination score, T series serum 48 [1, 6] | agglutination score, T series serum 55 [1, 6] | agglutination score, T series serum 62 [1, 6] | agglutination score, T series serum 63 [1, 6] | score vs panel 2 T217 ([2]; Table 9, construct 50 μg/ml) | score vs panel 8 T5896 ([2]; Table 9, construct 50 μg/ml)

M13: DOPE peptide-lipid construct: MUTK peptide SSQTNDKHKRDTY, leader c (Cys), spacer PEG6 (SSQTNDKHKRDTYC; also: DOPE peptide-lipid construct via leader Cys, spacer PEG6)
3: score vs panel 8 T5896 ([2]; Table 8, construct 250 μg/ml)
8: score vs panel 2 T217 ([2]; Table 8, construct 250 μg/ml) | score vs panel 4 T7202 ([2]; Table 8, construct 250 μg/ml) | score vs panel 6 T6025 ([2]; Table 8, construct 250 μg/ml) | score vs panel 13 BoxH ([2]; Table 8, construct 250 μg/ml) | agglutination score, serum #3, serum alone [4, 8] | agglutination score, serum #34, serum alone [4, 8] | agglutination score, serum #37, serum alone [4, 8] | agglutination score, serum #42, serum alone [4, 8]
0: score vs panel 3 T165 ([2]; Table 8, construct 250 μg/ml) | score vs panel 7 T8445 ([2]; Table 8, construct 250 μg/ml) | score vs panel 9 MIII ([2]; Table 8, construct 250 μg/ml) | score vs panel 10 Mia ([2]; Table 8, construct 250 μg/ml) | score vs panel 11 Mur ([2]; Table 8, construct 250 μg/ml) | score vs panel 12 Gam ([2]; Table 8, construct 250 μg/ml) | agglutination score, serum #3, serum + peptide [4, 9] | agglutination score, serum #34, serum + peptide [4, 9] | agglutination score, serum #37, serum + peptide [4, 9] | agglutination score, serum #42, serum + peptide [4, 9]

Adipate
8: Serological result, anti-A Neat ([5]; construct 5 μM) | Serological result, reciprocal of dilution of anti-A 2 ([5]; construct 5 μM) | Serological result, reciprocal of dilution of anti-A 8 ([5]; construct 10 μM) | Serological result, reciprocal of dilution of anti-A 16 ([5]; construct 10 μM) | Serological result, reciprocal of dilution of anti-A 32 ([5]; construct 10 μM) | Serological result, reciprocal of dilution of anti-A 64 ([5]; construct 10 μM) | Serological result, reciprocal of dilution of anti-A 128 ([5]; construct 50 μM) | Serological result, reciprocal of dilution of anti-A 256 ([5]; construct 50 μM)
10: Serological result, anti-A Neat ([5]; construct 10 μM) | Serological result, reciprocal of dilution of anti-A 2 ([5]; construct 10 μM) | Serological result, reciprocal of dilution of anti-A 4 ([5]; construct 10 μM) | Serological result, reciprocal of dilution of anti-A 64 ([5]; construct 50 μM)
5: Serological result, reciprocal of dilution of anti-A 4 ([5]; construct 5 μM)
12: Serological result, anti-A Neat ([5]; construct 50 μM) | Serological result, reciprocal of dilution of anti-A 2 ([5]; construct 50 μM) | Serological result, reciprocal of dilution of anti-A 4 ([5]; construct 50 μM) | Serological result, reciprocal of dilution of anti-A 8 ([5]; construct 50 μM) | Serological result, reciprocal of dilution of anti-A 16 ([5]; construct 50 μM) | Serological result, reciprocal of dilution of anti-A 32 ([5]; construct 50 μM)
3: Serological result, reciprocal of dilution of anti-A 8 ([5]; construct 5 μM) | Serological result, reciprocal of dilution of anti-A 128 ([5]; construct 10 μM) | Serological result, reciprocal of dilution of anti-A 512 ([5]; construct 50 μM)

VMYASSG?
8: Post-neutralisation serology, PAC74 [4, 10] | Post-neutralisation serology, TAP1 [4, 10] | Post-neutralisation serology, PAC70 [4, 11] | Post-neutralisation serology, TAP2 [4, 11]
5: Post-neutralisation serology, PAC71 [4, 11] | Post-neutralisation serology, PAC72 [4, 11]
